Assays:
Trypanosoma brucei [1] = experiment: Antiparasitic activity against bloodstream form of Trypanosoma brucei 221 infected in mouse VSMC assessed as reduction in parasitic proliferation after 48 hrs by cell titer-glo based assay; format: functional, organism-based; conditions: Trypanosoma brucei, 221, VSMC
Trypanosoma brucei [2] = experiment: Antiparasitic activity against bloodstream form of Trypanosoma brucei 221 infected in mouse VSMC assessed as reduction in log10 RLU at 1 uM after 48 hrs by luciferase reporter gene assay; format: functional
Trypanosoma brucei [3] = experiment: Antiparasitic activity against bloodstream form of Trypanosoma brucei 221 infected in mouse VSMC assessed as parasitic proliferation at 1 uM after 48 hrs by luciferase reporter gene assay; format: functional
INS1 = experiment: Cytotoxicity against rat INS-1 cells assessed as cell growth inhibition; format: cell-based
[4] = Selectivity ratio of IC50 for mouse vSMC to IC50 for bloodstream form of Trypanosoma brucei 221; format: toxicity; conditions: read-out: Ratio IC50
[5] = Cytotoxicity against mouse VSMC assessed as cell growth inhibition
[6] = target: Tyrosine-protein kinase JAK2 (Homo sapiens, UniProt O60674, V617F); experiment: Inhibition of JAK2 V617F mutant (unknown origin) using L-Ahx-IPTSPITTTYFFFKKK-COOH as substrate in presence of ATP
Sequence of Tyrosine-protein kinase JAK2 (O60674 whole entry V617F): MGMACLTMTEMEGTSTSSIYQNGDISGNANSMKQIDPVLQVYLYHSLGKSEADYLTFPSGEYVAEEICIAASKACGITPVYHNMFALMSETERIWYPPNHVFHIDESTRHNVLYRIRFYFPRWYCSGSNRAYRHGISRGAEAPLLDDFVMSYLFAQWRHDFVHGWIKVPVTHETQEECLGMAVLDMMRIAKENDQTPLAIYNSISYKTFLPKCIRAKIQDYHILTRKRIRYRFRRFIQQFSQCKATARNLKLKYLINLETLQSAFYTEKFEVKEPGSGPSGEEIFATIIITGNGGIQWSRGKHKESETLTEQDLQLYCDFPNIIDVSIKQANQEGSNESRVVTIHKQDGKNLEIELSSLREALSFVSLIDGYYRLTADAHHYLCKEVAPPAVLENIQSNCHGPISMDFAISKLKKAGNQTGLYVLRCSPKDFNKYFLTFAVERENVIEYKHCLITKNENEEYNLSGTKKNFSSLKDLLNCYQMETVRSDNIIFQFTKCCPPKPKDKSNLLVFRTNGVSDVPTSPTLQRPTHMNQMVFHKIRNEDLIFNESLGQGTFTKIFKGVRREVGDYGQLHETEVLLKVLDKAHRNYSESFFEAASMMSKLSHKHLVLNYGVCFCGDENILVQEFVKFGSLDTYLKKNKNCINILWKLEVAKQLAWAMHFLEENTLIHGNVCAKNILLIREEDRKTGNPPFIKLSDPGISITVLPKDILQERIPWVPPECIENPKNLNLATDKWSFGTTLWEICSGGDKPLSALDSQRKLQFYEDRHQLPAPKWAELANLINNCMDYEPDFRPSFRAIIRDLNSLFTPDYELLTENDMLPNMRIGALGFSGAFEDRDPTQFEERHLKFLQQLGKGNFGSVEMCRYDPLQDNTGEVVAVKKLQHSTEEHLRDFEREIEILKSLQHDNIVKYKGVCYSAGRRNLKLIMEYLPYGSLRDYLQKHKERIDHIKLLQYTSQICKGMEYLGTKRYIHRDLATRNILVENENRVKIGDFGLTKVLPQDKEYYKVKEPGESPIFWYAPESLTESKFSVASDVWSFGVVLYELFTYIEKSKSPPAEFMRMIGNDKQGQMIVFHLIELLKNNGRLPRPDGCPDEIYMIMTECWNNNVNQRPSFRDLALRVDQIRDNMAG

[7] = Selectivity ratio of IC50 for rat ins-1 cells to IC50 for bloodstream form of Trypanosoma brucei 221; format: toxicity; conditions: read-out: Ratio IC50
[8] = Inhibition of GST-tagged Trypanosoma brucei ERK8 expressed in Escherichia coli using recombinant myelin basic protein as substrate after 30 mins in presence of 32P-gamma-ATP by Michaelis-Menten analysis
Trypanosoma brucei [9] = experiment: Inhibition of GST-tagged Trypanosoma brucei ERK8 autophosphorylation expressed in Escherichia coli using myelin basic protein as substrate after 30 mins in presence of 32P-gamma-ATP by SDS-PAGE based autoradiography

In the case of `Nc1ccc(-c2ccc3ncc4ccc(=O)n(-c5cccc(C(F)(F)F)c5)c4c3c2)cn1`, the IC50 (Trypanosoma brucei [1]) is reported as 1000 nM, the “reduction in log10 RLU” value (Trypanosoma brucei [2]) is reported as 2 and the Activity (Trypanosoma brucei [3]) is reported as 0.6%.

In the case of `Cc1cc(Nc2nc(N[C@@H](C)c3ccc(F)cc3)c(C#N)cc2F)n[nH]1`, the IC50 (INS1; Rattus norvegicus, INS1) is reported as 10000 nM, the “inhibition (INH)” value (INS1; rat, ins1) is reported as “Dose-dependent effect” and the selectivity ratio [4] is reported as 208 to 210. The IC50 ([5]; Mus musculus, VSMC) was 25000 nM, the “inhibition (INH)” value ([5]; mouse) was “Dose-dependent effect” and the IC50 (Trypanosoma brucei [1]) was 120 nM. The “reduction in log10 RLU” value (Trypanosoma brucei [2]) was 2, the Ki [6] was 0.45 nM and the selectivity ratio [7] was 83 to 84. The Ki [8] was 1250 nM, the Activity (Trypanosoma brucei [3]) was 0.26% and the inhibition (Trypanosoma brucei [9]) was < 20%.

For `O=C1c2ccccc2-c2n[nH]c3cccc1c23`, the IC50 (Trypanosoma brucei [1]) was 570 nM, the “reduction in log10 RLU” value (Trypanosoma brucei [2]) was 2 and the Activity (Trypanosoma brucei [3]) was 0.26%.

In the case of `Cc1ncc(-c2ccnc(Nc3ccc(S(C)(=O)=O)cc3)n2)n1C(C)C` [AZD-5438], the IC50 (Trypanosoma brucei [1]) is reported as 210 nM, the “reduction in log10 RLU” value (Trypanosoma brucei [2]) is reported as 2 and the Activity (Trypanosoma brucei [3]) is reported as 0.45%. For the same compound, the inhibition (Trypanosoma brucei [9]) was < 20%.

In the case of `COc1ccc(-c2ccc3ncc4c(c3c2)n(-c2ccc(N3CCNCC3)c(C(F)(F)F)c2)c(=O)n4C)cn1` [BGT-226 FREE BASE], the IC50 (Trypanosoma brucei [1]) is reported as 950 nM, the “reduction in log10 RLU” value (Trypanosoma brucei [2]) is reported as 2 and the Activity (Trypanosoma brucei [3]) is reported as 0.12%.

With `CC(C)(C)c1cnc(CSc2cnc(NC(=O)C3CCNCC3)s2)o1` [BMS-387032] the IC50 (Trypanosoma brucei [1]) was 120 nM, the “reduction in log10 RLU” value (Trypanosoma brucei [2]) was 2 and the Activity (Trypanosoma brucei [3]) was 0.36%.

For `Cn1c(=O)n(-c2ccc(C(C)(C)C#N)cc2)c2c3cc(-c4cnc5ccccc5c4)ccc3ncc21` [DACTOLISIB], the “reduction in log10 RLU” value (Trypanosoma brucei [2]) was 2 and the Activity (Trypanosoma brucei [3]) was 0.49%.

For `CCc1cnn2c(NCc3ccc[n+]([O-])c3)cc(N3CCCC[C@H]3CCO)nc12` [DINACICLIB], the IC50 (Trypanosoma brucei [1]) was 80 nM, the “reduction in log10 RLU” value (Trypanosoma brucei [2]) was 2 and the Activity (Trypanosoma brucei [3]) was 1.13%.

For `CCS(=O)(=O)Nc1ccc2c(c1)/C(=C(/Nc1ccc(CN3CCCCC3)cc1)c1ccccc1)C(=O)N2` [HESPERADIN], the “reduction in log10 RLU” value (Trypanosoma brucei [2]) was 2 and the Activity (Trypanosoma brucei [3]) was 0.27%.

For `CNC(=O)c1nn(C)c2c1C(C)(C)Cc1cnc(Nc3ccc(N4CCN(C)CC4)cc3)nc1-2` [MILCICLIB], the IC50 (Trypanosoma brucei [1]) was 610 nM, the “reduction in log10 RLU” value (Trypanosoma brucei [2]) was 2 and the Activity (Trypanosoma brucei [3]) was 0.58%. For the same compound, the inhibition (Trypanosoma brucei [9]) was < 20%.

For `COc1ncc(-c2ccc3nccc(-c4ccnnc4)c3c2)cc1NS(=O)(=O)c1ccc(F)cc1F` [OMIPALISIB], the IC50 (Trypanosoma brucei [1]) was 111 nM, the “reduction in log10 RLU” value (Trypanosoma brucei [2]) was 2 and the Activity (Trypanosoma brucei [3]) was 0.21%.

With `CC(=O)NCC(=O)N1[C@@H]2CC[C@H]1c1ccc(Nc3ncc(C(F)(F)F)c(NC4CCC4)n3)cc12` [PF-03814735] the IC50 (Trypanosoma brucei [1]) was 260 nM, the “reduction in log10 RLU” value (Trypanosoma brucei [2]) was 2 and the Activity (Trypanosoma brucei [3]) was 1.16%. For the same compound, the inhibition (Trypanosoma brucei [9]) was < 20%.
